The results in this text go back to paper PMC6503114, “Application of Antimicrobial Peptides of the Innate Immune System in Combination With Conventional Antibiotics—A Novel Way to Combat Antibiotic Resistance?” (Frontiers in Cellular and Infection Microbiology, 2019).

Read-outs that look alike come from different tables or passages of the source. Where no end group is shown, it is not given here.

Data set [1] has as its system human erythrocytes. Here is the method:
To obtain erythrocytes, heparinized blood was centrifuged for 10 min at 300 g and 4°C. The supernatant liquid was removed, 10 ml of cooled PBS containing 4 mM of EDTA (pH 7.4) was added to the precipitate, and the mixture was centrifuged for 10 min under the same conditions. Then, red blood cells were washed three more times with cooled PBS. The sedimented red blood cells were used for the hemolytic test.
(§1) Here, [MEC A] and [MEC B] are the minimum effective concentrations (MEC) of substances A and B, when they are used alone. […] [A] and [B] are respective concentrations of substances A and B in their combination, where the same statistically significant difference is detected. A non-parametric Mann-Whitney U-test (p < 0.05 or p < 0.01) was used for the mentioned statistical comparison.
(§2) We have chosen the same intervals as that of FICI to determine synergy, additivity, independent action, and antagonism based on the minimal FECI values. However, in case of cytotoxic or hemolytic effect we were interested mainly in testing the possibility of additive or synergistic interaction itself, and not in assessing the exact magnitude of such interaction. Thus, in contrast to the “checkerboard titration” method used for combined antimicrobial activity investigation, studying the combined cytotoxic effect, we considered only two combinations of concentrations for the substances A and B in the mixture: • (½ MEC A + ½ MEC B), which, if found effective, provides the FECI value of 1 (the threshold value for additivity); • (¼ MEC A + ¼ MEC B), which, if found effective, provides the FECI value of 0.5 (the threshold value for synergetic interaction).
(§3) When action on tumor cells was tested in combination with antitumor antibiotic the lower concentrations up to ( 1/16 MEC A + 1/16 MEC B) as in checkerboard titration were additionally examined to assess the magnitude of synergistic effect more precisely. The final conclusion was made based on the three independent experiments.
Two hundred eighty microliters of erythrocyte precipitate obtained as described in section Eukaryotic Cells was added into the sterile 15 ml tube and its volume was adjusted to 10 ml with cooled PBS. Using 0.5 ml plastic tubes, 3 μl of the tested compound serially diluted in PBS or of the combination of two compounds were mixed with the 27 μl of the prepared erythrocyte suspension for each sample. For positive control (100% lysis of erythrocytes) 3 μl of the detergent (10% Triton X-100 solution in PBS) were added to the 27 μl of the erythrocyte suspension, and for negative control (0% lysis of erythrocytes) 3 μl of the PBS were used instead of any cell-damaging compound. […] After incubation, the hemolysis process was stopped by the addition of 75 μl of cooled PBS. The samples were centrifuged at 5,000 g and 4°C for 4 min. The optical density of the supernatants was measured at a wavelength of 540 nm using SpectraMax 250 Spectrophotometer (Molecular Devices, USA). The experiments were repeated three times. In each experiment all the test or control samples were made in triplicates. The percentage of hemolysis of erythrocytes was assessed by the following formula:
where ODsample, OD0%lysis, and OD100%lysis are values of the OD at 540 nm for the test sample, negative (0% lysis) control, and positive (100% lysis) control, respectively. However, due to the design of the study of combined action, described above in Combined Hemolytic or Cytotoxic Action, the obtained ODsample and OD0%lysis values were rather used to determine MECs and FECI by the Mann-Whitney U-test (p < 0.05, n1, n2 = 3).

Data set [2] has as its system Human neutrophils. Here is the method:
The pellet formed under the Ficoll-400 layer after separation contained both neutrophils and erythrocytes. It was also transferred into a separate tube, where the red blood cells were lysed with 0.83% ammonium chloride solution, which was added in a ratio of 1:4. After the thorough mixing, the suspension was incubated for 10 min at room temperature, and then centrifuged for 10 min at 300 g and 4°C. The resulting precipitate containing neutrophils was washed twice with the sterile PBS.
(§4) We calculated Fractional Effective Concentration Index (FECI), which could be seen as a particular case of the interaction index (I) proposed by Berenbaum ([1977]) or of the similar combination index (CI) proposed by Chou and Talalay ([1983]), according to the equation below: […]
as §1, §2, §3
(§5) Standard MTT-test (Mosmann, [1983]) was used for the examination of the cytotoxic activity of antimicrobial compounds and their combinations toward varied eukaryotic cells. Briefly, cell suspensions in RPMI-1640 prepared as described in Eukaryotic Cells were dispensed into the 96-well microplates (2 × 10^5 cells/well). Then, serial dilutions of AMPs, or other antibiotic compounds, or their mixtures in RPMI-1640 were added. In positive controls (100% cell survival) the according volume of RPMI-1640 without test substances was added instead. The final volume in each well was 100 μl. Negative controls (0% cell survival) were made with 100 μl of the sterile RPMI-1640. The plates were incubated at 37°C under 5% CO2 for 24 h. Four hours before the end of incubation, 10 μl of metabolic marker MTT−3-(4,5-dimethylthiazol-2-yl)-2,5-diphenyltetrazolium bromide (5 mg/ml, diluted in PBS) was added to each well. Incubation was stopped by adding 90 μl of isopropanol containing 0.04 M HCl. Content of the wells was thoroughly mixed, so that the formazan crystals, formed in case of the reduction of MTT in presence of actively metabolizing cells, were fully dissolved. The optical density of the samples was evaluated at 540 nm, subtracting the background absorbance at 690 nm, by SpectraMax 250 Spectrophotometer (Molecular Devices, USA). The experiments were repeated at least three times. In each experiment test samples were made in triplicates and control samples were made in hexaplicates.

Data set [3] deals with Human PBMC. Kind of data set: MTT-test. Here is the method:
To obtain neutrophils and mononuclear cells, whole heparinized blood was diluted with sterile PBS in a 1:1 ratio and carefully inserted into the sterile polystyrene 50 ml tube upon the 5 ml of the sterile Ficoll-400 (Pharmacia, Sweden) with a density of 1.077. The tube was centrifuged at 600 g and 4°C for 40 min. After separation, the mononuclear “ring” located between the blood plasma and Ficoll was collected with a Pasteur pipette, transferred to another tube, and washed twice with 10 ml of sterile PBS by centrifugation for 10 min at 300 g and 4°C.
as §4, §1, §2, §3, §5
(Formazan colour is commonly taken as a measure of viable cells.)

[4] abbreviates: Human neutrophils, normal cells, MTT, 24 h.
The mark [5] stands for this setting: Human PBMC, normal cells, MTT, 24 h, square brackets = twice the maximal tested concentration.

Take `CNC(C)C1CCC(N)C(OC2C(N)CC(N)C(OC3OCC(C)(O)C(NC)C3O)C2O)O1` (centres unmarked) [Gentamicin]: the “MEC of hemolysis of human erythrocytes” value in data set [1] (human, 30 min) was >50 [100] μM. Besides, the “MEC of cytotoxic action” value in data set [2] (human, 24 h) is 50 µM; in data set [3] (human, 24 h) it was >50 [100] μM.
Consider `CC[C@H](C)[C@H](NC(=O)[C@H](CCCCN)NC(=O)[C@H](CCC(=O)O)NC(=O)[C@H](CCCCN)NC(=O)[C@H](CO)NC(=O)[C@H](CCCCN)NC(=O)[C@H](CCCNC(=N)N)NC(=O)[C@H](Cc1ccccc1)NC(=O)[C@H](Cc1ccccc1)NC(=O)[C@H](CC(=O)O)NC(=O)CNC(=O)[C@H](CC(C)C)NC(=O)[C@@H](N)CC(C)C)C(=O)NCC(=O)N[C@@H](CCCCN)C(=O)N[C@@H](CCC(=O)O)C(=O)N[C@@H](Cc1ccccc1)C(=O)N[C@@H](CCCCN)C(=O)N[C@@H](CCCNC(=N)N)C(=O)N[C@H](C(=O)N[C@H](C(=O)N[C@@H](CCC(N)=O)C(=O)N[C@@H](CCCNC(=N)N)C(=O)N[C@H](C(=O)N[C@@H](CCCCN)C(=O)N[C@@H](CC(=O)O)C(=O)N[C@@H](Cc1ccccc1)C(=O)N[C@@H](CC(C)C)C(=O)N[C@@H](CCCNC(=N)N)C(=O)N[C@@H](CC(N)=O)C(=O)N[C@@H](CC(C)C)C(=O)N[C@H](C(=O)N1CCC[C@H]1C(=O)N[C@@H](CCCNC(=N)N)C(=O)N[C@H](C(=O)N[C@@H](CCC(=O)O)C(=O)N[C@@H](CO)C(=O)O)[C@@H](C)O)C(C)C)[C@@H](C)CC)C(C)C)[C@@H](C)CC` [LL-37], for which the “MEC of hemolysis of human erythrocytes” value in data set [1] (30 min, 37°C, no blood serum) stood at 5.0 µM. The “MEC of cytotoxic action” value in data set [2] (setting [4]) is 10 µM; in data set [3] (setting [5]), 12 µM.
As for `CC1COc2c(N3CCN(C)CC3)c(F)cc3c(=O)c(C(=O)O)cn1c23` (centres unmarked) [Ofloxacin], in data set [1] (human, 30 min), the “MEC of hemolysis of human erythrocytes” value was >50 [100] μM. Further, the “MEC of cytotoxic action” value in data set [2] (human, 24 h) was >50 [100] μM; in data set [3] (human, 24 h), >50 [100] μM.
Consider `Cc1onc(-c2ccccc2)c1C(=O)N[C@@H]1C(=O)N2[C@@H]1SC(C)(C)[C@@H]2C(=O)O` [Oxacillin], for which the “hemolytic action (in words)” value in data set [1] is on record as “slight hemolityc action”. The “MEC of hemolysis of human erythrocytes” value in data set [1] (human, 30 min) is 25 µM. The “MEC of cytotoxic action” value is >50 [100] μM in data set [2] (human, 24 h) and >50 [100] μM in data set [3] (human, 24 h).
Consider `CO[C@H]1/C=C/O[C@@]2(C)Oc3c(C)c(O)c4c(O)c(c(/C=N/N5CCN(C)CC5)c(O)c4c3C2=O)NC(=O)/C(C)=C\C=C\[C@H](C)[C@H](O)[C@@H](C)[C@@H](O)[C@@H](C)[C@H](OC(C)=O)[C@@H]1C` [Rifampicin], for which, in data set [1], the “hemolytic action (in words)” value was “slight hemolityc action”. Moreover, the “MEC of hemolysis of human erythrocytes” value in data set [1] (human, 30 min) is 20 µM. In addition, the “MEC of cytotoxic action” value in data set [2] (human, 24 h) is 20 µM; in data set [3] (human, 24 h), >20 [40] μM.
As to “Lysozyme: egg white lysozyme, antimicrobial protein, from BioChemica”, the “MEC of hemolysis of human erythrocytes” value in data set [1] was >50 [100] μM. Besides, the “MEC of cytotoxic action” value in data set [2] and in data set [3] was >50 [100] μM each time.
For Polymyxin B, the “MEC of hemolysis of human erythrocytes” value in data set [1] (30 min, 37°C, no blood serum) is >50 [100] μM. Also, the “MEC of cytotoxic action” value is >50 [100] μM in data set [2] (setting [4]) and 50 µM in data set [3] (setting [5]).
For “RFRLPFRRPPIRIHPPPFYPPFRRFL-NH2 (C-terminus assumed) [ChBac3.4]”, in data set [1], the “MEC of hemolysis of human erythrocytes” value is >50 [100] μM. In addition, the “MEC of cytotoxic action” value in data set [2] was >20 [40] μM; in data set [3], 20 µM.
